# Measurements published in patent US8609695B2, “Methods of treating and/or suppressing insulin resistance” (Endorecherche, Inc., priority 1999, dated 2013).
# Columns and labels:
# [1] = test system: ovariectomized female rats; assay: 20-day treatment with EM-652.HCl, estradiol and DHEA, body fat (Example 6); format: in vivo, Rattus norvegicus; conditions: OVX rats; for decrease of body fat / decrease of retroperitoneal adipose tissue: 20 days; for Retroperitoneal adipose tissue / Fat %: enriched carbohydrate diet, 20 days oral, EM-652.HCl 0.5, E2 0.5, DHEA 100 mg/rat; for Fat %: DEXA day 21
# From the text: d) Diet: Certified Rodent feed (Lab Diet #5002, pellets) and tap water were provided ad libitum during the acclimation period. During the study period, the rats received an enriched carbonhydrate diet ad libitum. The enriched diet (diet #3) was composed of (g/100 g): Corn starch, 31.2; Dextrose, 31.2; Casein, 20.0; Corn oil, 6.4; dl-Methionine, 0.3; Vitamin mix, 1.0; AIN-76 mineral mix, 4.9; Fiber, 5.0.
# 80 rats were assigned to 8 groups of 10 rats for the conduct of the study outlined below:
# On day 0 of the study, rats from groups 2 to 8 were ovariectomized, by bilateral flank incision, under Isoflurane-induced anesthesia. Rats from group 1 were sham-operated.
# The administration of the test articles or vehicle began on Day 1 (the day following the ovariectomy). The tested compounds were given as suspensions in 0.4% methylcellulose by oral gavage (0.5 ml/gavage) for 20 days.
# On day 21 of the study (prior to the necropsy), body composition was determined on whole body skeleton of animals under Isoflurane-induced anesthesia using dual energy x-ray absorptiometry (DEXA; QDR 4500A, Hologic) in order to determine the effect of treatments on fat percentage.
# Right and left retroperitoneal adipose tissue were collected and weighed.
# [2] = test system: ovariectomized female rats; assay: 34-week treatment with ethynyl estradiol, EM-652.HCl, Raloxifene and DHEA, body fat (Example 7); format: in vivo, rat; conditions: OVX rats, 34 weeks; for Fat %: DEXA; for Fat % / Left retroperitoneal adipose tissue / Right retroperitoneal adipose tissue: EE2 0.1, Raloxifene 1, EM-652.HCl 1 mg/kg oral, DHEA 80 mg/kg topical
# Experimental: The objective of this study was to assess the effect of a combined treatment with EM-652.HCl, and DHEA on body fat and body weight parameters in ovariectomized rats. For this purpose, ovariectomized rats received daily administration of EM-652.HCl (1 mg/kg), and DHEA (80 mg/kg) alone or in combination, for 34 weeks. EM-652.HCl was administered orally while DHEA was applied topically on dorsal skin. One group of animals was orally treated with 17-ethynylestradiol (0.1 mg/kg) and Raloxifene (EM-1105; 1 mg/kg) for comparison.
# Ten to twelve week-old female Sprague-Dawley rats (Crl:CD(SD)Br) weighing approximately 235-250 g at start of treatment were used. Eighty rats were randomly distributed between 7 groups of 11 to 12 animals per group as follows: 1) Intact control; 2) OVX control; 3) OVX+EE2 (0.1 mg/kg); 4) OVX+raloxifene (1 mg/kg); 5) OVX+EM-652.HCl (1 mg/kg); 6) OVX+DHEA (80 mg/kg); 7) OVX+EM-652.HCl+DHEA. On day 1 of the study, the animals of the appropriate groups were bilaterally ovariectomized (OVX) under isoflurane anesthesia. EM-652.HCl, raloxifene and EE2 (Steraloids) were administered once daily by oral gavage as suspension in 0.4% methylcellulose (0.5 ml/rat) for 34 weeks while DHEA was applied topically once daily on dorsal skin as a solution in 50% ethanol-50% propylene glycol (0.5 ml/rat) for the same time period. Approximately 24 hours after the last dosing, overnight fasted animals were killed by exsanguination at the abdominal aorta under isoflurane anesthesia. Left and right retroperitoneal adipose tissues were collected and weighed.
# After 34 weeks of treatment, individual rats under anesthesia with isoflurane had their whole body skeleton scanned using dual energy x-ray absorptiometry (DEXA; QDR 4500A, Hologic, Waltham, Mass.) and a Regional High Resolution Scan software. The body composition (including fat percentage) was determined.
# Data were expressed as the means±SEM.
SMILES,decrease of body fat [1] [%],decrease of retroperitoneal adipose tissue [1] [%],Retroperitoneal adipose tissue [1] [g],Fat % [1] [%],increment of body fat and retroperitoneal adipose tissue by ovariectomy [2],Fat % [2] [%],Left retroperitoneal adipose tissue [2] [g],Right retroperitoneal adipose tissue [2] [g]
"C[C@]12CC[C@H](O)CC1=CC[C@@H]1[C@@H]2CC[C@]2(C)C(=O)CC[C@@H]12 [DHEA, dehydroepiandrosterone]",59,75,0.92 ± 0.17,7.8 ± 0.8,prevented,26.8 ± 2.3,1.98 ± 0.17,2.16 ± 0.25
"CC1=C(c2ccc(O)cc2)[C@H](c2ccc(OCCN3CCCCC3)cc2)Oc2cc(O)ccc21.Cl [EM-652.HCl, (S)-(+)-7-hydroxy-3-(4′-hydroxyphenyl)-4-methyl-2-(4″-(2′″-piperidino-ethoxy)phenyl)-2H-1-benxopyran hydrochloride]",46,59,1.52 ± 0.18,10.2 ± 1.2,prevented,27.7 ± 1.8,2.19 ± 0.28,2.07 ± 0.18
